Results as given in US11517016B2, “Agrochemical combinations” (UPL LTD, priority 2017, dated 2022).

What was measured:
fruit borer = assay: Trials of Chlorantraniliprole and Orthosilicic acid on controlling fruit borer; assay type: in vivo; settings: for Percent fruit Borer control Mean: Mean of A-10, B-10, C-10
Procedure: Trials were conducted to test the efficacy of the combination of Chlorantraniliprole and Orthosilicic acid on controlling fruit borer at different dosages.

Early Blight = assay: Trials of Chlorantraniliprole+Mancozeb+Orthosilicic acid on Early Blight control; assay type: in vivo
Procedure: Trials were conducted to test the efficacy of the combination of Chlorantraniliprole+Mancozeb+Orthosilicic acid on Early Blight control: […]

CNC(=O)c1cc(Cl)cc(C)c1NC(=O)c1cc(Br)nn1-c1ncccc1Cl [Chlorantraniliprole]
Percent fruit Borer control A-10 (fruit borer; dose 150 gm-ml/ha): 73.8% | Percent fruit Borer control B-10 (fruit borer; dose 150 gm-ml/ha): 85.4% | Percent fruit Borer control C-10 (fruit borer; dose 150 gm-ml/ha): 87.8% | Percent fruit Borer control Mean (fruit borer; dose 150 gm-ml/ha): 82.33% | Per Cent Early Blight Control (PDC) A-10 (Early Blight; T-5, dose 150 gm-ml/ha): 04.52% | Per Cent Early Blight Control (PDC) B-10 (Early Blight; T-5, dose 150 gm-ml/ha): 02.39% | Per Cent Early Blight Control (PDC) C-10 (Early Blight; T-5, dose 150 gm-ml/ha): 02.76% | Per Cent Early Blight Control (PDC) Mean (Early Blight; T-5, dose 150 gm-ml/ha): 3.22%

Mancozeb
Per Cent Early Blight Control (PDC) A-10 (Early Blight; T-6, dose 2000 gm-ml/ha): 72.26% | Per Cent Early Blight Control (PDC) B-10 (Early Blight; T-6, dose 2000 gm-ml/ha): 77.04% | Per Cent Early Blight Control (PDC) C-10 (Early Blight; T-6, dose 2000 gm-ml/ha): 81.17% | Per Cent Early Blight Control (PDC) Mean (Early Blight; T-6, dose 2000 gm-ml/ha): 76.82%

Orthosilicic acid [OSA]
Percent fruit Borer control A-10 (fruit borer; dose 750 gm-ml/ha): 2.1% | Percent fruit Borer control B-10 (fruit borer; dose 750 gm-ml/ha): 3.6% | Percent fruit Borer control C-10 (fruit borer; dose 750 gm-ml/ha): 4.4% | Percent fruit Borer control Mean (fruit borer; dose 750 gm-ml/ha): 3.37% | Per Cent Early Blight Control (PDC) A-10 (Early Blight; T-7, dose 750 gm-ml/ha): 9.38% | Per Cent Early Blight Control (PDC) B-10 (Early Blight; T-7, dose 750 gm-ml/ha): 11.57% | Per Cent Early Blight Control (PDC) C-10 (Early Blight; T-7, dose 750 gm-ml/ha): 13.95% | Per Cent Early Blight Control (PDC) Mean (Early Blight; T-7, dose 750 gm-ml/ha): 11.63% | Effect of addition on effectiveness of the combination of chlorantraniliprole+Mancozeb against Early blight (Early Blight; added to Chlorantraniliprole+Mancozeb): act as synergist
